From ChEMBL document CHEMBL5696441 (Nat Chem Biol, 2011)

What was measured:
[1] = biological target: Atypical kinase COQ8A, mitochondrial (Homo sapiens) (UniProt Q8NI60); experiment: Inhibition of ADCK3 (unknown origin) assessed as remaining activity at 1 uM by Kinome scan method relative to control
[2] = biological target: Misshapen-like kinase 1 (Homo sapiens) (UniProt Q8N4C8); experiment: Inhibition of MINK (unknown origin) assessed as remaining activity at 1 uM by Kinome scan method relative to control
[3] = biological target: Serine/threonine-protein kinase DCLK3 (Homo sapiens) (UniProt Q9C098); experiment: Inhibition of DCAMKL3 (unknown origin) assessed as remaining activity at 1 uM by Kinome scan method relative to control
[4] = biological target: T1, Aurora kinase A (Homo sapiens) (UniProt O14965); experiment: Inhibition of AURKA (unknown origin) assessed as remaining activity at 1 uM by Kinome scan method relative to control
T1 sequence (whole entry): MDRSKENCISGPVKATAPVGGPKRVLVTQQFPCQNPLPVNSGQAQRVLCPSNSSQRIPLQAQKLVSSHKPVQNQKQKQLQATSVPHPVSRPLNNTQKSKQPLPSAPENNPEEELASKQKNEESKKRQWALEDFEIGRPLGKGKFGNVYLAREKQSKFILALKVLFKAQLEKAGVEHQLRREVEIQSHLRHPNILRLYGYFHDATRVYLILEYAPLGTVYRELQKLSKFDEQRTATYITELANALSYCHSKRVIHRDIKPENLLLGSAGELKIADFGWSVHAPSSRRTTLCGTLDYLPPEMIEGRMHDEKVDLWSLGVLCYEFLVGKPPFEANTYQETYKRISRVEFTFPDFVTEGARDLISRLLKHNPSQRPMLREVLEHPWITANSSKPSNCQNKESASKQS

[5] = biological target: Serine/threonine-protein kinase N2 (Homo sapiens) (UniProt Q16513); experiment: Inhibition of PKN2 (unknown origin) assessed as remaining activity at 1 uM by Kinome scan method relative to control
[6] = biological target: Phosphatidylinositol 4,5-bisphosphate 3-kinase catalytic subunit beta isoform (Homo sapiens) (UniProt P42338); experiment: Inhibition of PIK3CB (unknown origin) assessed as remaining activity at 1 uM by Kinome scan method relative to control
[7] = biological target: Cyclin-dependent kinase 18 (Homo sapiens) (UniProt Q07002); experiment: Inhibition of PCTK3 (unknown origin) assessed as remaining activity at 1 uM by Kinome scan method relative to control
[8] = biological target: Epithelial discoidin domain-containing receptor 1 (Homo sapiens) (UniProt Q08345); experiment: Inhibition of DDR1 (unknown origin) assessed as remaining activity at 1 uM by Kinome scan method relative to control
[9] = biological target: Activin receptor type-1-like (Homo sapiens) (UniProt P37023); experiment: Inhibition of ACVRL1 (unknown origin) assessed as remaining activity at 1 uM by Kinome scan method relative to control
[10] = biological target: T2, Serine/threonine-protein kinase PLK4 (Homo sapiens) (UniProt O00444); experiment: Inhibition of PLK4 (unknown origin) assessed as remaining activity at 1 uM by Kinome scan method relative to control
T2 sequence (whole entry): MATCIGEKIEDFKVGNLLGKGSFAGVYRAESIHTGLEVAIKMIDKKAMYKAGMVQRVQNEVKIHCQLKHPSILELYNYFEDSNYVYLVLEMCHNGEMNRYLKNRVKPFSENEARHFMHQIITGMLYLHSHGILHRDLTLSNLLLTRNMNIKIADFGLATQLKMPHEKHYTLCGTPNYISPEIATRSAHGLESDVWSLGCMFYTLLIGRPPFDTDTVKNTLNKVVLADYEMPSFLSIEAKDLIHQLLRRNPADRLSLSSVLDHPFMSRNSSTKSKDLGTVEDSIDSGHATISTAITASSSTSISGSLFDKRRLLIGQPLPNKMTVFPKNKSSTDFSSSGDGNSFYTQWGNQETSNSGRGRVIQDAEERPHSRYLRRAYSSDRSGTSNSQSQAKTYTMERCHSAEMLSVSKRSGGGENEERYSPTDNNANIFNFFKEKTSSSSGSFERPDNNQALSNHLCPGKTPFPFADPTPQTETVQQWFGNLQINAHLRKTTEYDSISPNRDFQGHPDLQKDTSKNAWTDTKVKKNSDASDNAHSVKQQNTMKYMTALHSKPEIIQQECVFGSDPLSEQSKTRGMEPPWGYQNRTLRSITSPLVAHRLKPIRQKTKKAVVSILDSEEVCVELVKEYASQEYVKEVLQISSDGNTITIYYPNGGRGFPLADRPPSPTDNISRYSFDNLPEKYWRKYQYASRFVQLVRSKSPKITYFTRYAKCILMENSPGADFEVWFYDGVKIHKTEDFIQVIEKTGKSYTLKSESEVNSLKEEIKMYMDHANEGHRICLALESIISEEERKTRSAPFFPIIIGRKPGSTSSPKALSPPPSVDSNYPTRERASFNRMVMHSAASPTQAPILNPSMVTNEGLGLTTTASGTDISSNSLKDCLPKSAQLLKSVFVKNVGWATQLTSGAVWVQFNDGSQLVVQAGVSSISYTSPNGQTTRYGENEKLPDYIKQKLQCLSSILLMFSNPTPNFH

[11] = biological target: Aurora kinase B (Homo sapiens) (UniProt Q96GD4); experiment: Inhibition of AURKB (unknown origin) assessed as remaining activity at 1 uM by Kinome scan method relative to control
[12] = biological target: Cyclin-dependent kinase 2 (Homo sapiens) (UniProt P24941); experiment: Inhibition of CDK2 (unknown origin) assessed as remaining activity at 1 uM by Kinome scan method relative to control
[13] = biological target: MAP kinase-activated protein kinase 2 (Homo sapiens) (UniProt P49137); experiment: Inhibition of MAPKAPK2 (unknown origin) assessed as remaining activity at 1 uM by Kinome scan method relative to control
[14] = biological target: Serine/threonine-protein kinase DCLK1 (Homo sapiens) (UniProt O15075); experiment: Inhibition of DCAMKL1 (unknown origin) assessed as remaining activity at 1 uM by Kinome scan method relative to control
[15] = biological target: Cyclin-G-associated kinase (Homo sapiens) (UniProt O14976); experiment: Inhibition of GAK (unknown origin) assessed as remaining activity at 1 uM by Kinome scan method relative to control
[16] = biological target: Insulin receptor (Homo sapiens) (UniProt P06213); experiment: Inhibition of INSR (unknown origin) assessed as remaining activity at 1 uM by Kinome scan method relative to control

Chain of Serine/threonine-protein kinase N2 (Homo sapiens) (Q16513 whole entry, looked up, canonical isoform): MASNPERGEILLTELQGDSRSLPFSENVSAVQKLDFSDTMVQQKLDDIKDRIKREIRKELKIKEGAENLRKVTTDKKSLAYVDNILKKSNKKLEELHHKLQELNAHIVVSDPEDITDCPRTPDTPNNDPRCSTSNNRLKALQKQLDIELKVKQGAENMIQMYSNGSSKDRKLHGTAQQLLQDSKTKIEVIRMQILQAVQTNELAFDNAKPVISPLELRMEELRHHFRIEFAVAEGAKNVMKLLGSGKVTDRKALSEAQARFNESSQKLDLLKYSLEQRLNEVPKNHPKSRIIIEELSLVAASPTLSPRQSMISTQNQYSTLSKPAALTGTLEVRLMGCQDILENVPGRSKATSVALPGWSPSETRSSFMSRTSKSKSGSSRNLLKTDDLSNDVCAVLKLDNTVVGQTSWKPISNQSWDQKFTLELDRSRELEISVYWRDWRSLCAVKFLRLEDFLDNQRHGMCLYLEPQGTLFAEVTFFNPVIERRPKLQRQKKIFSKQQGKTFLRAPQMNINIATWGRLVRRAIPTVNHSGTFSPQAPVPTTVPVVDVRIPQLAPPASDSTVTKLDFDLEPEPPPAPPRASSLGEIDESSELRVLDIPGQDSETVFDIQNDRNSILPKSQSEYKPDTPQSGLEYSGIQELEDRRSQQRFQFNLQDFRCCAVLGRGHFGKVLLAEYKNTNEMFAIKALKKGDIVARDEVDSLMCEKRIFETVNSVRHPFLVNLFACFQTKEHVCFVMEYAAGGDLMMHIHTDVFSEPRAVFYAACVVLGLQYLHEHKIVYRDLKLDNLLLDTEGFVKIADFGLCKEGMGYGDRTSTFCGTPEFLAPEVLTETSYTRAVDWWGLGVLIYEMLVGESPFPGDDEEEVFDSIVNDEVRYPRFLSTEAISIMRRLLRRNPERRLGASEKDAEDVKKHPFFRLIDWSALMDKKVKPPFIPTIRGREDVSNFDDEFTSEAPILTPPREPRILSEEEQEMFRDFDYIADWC
Chain of Aurora kinase B (Homo sapiens) (Q96GD4 whole entry): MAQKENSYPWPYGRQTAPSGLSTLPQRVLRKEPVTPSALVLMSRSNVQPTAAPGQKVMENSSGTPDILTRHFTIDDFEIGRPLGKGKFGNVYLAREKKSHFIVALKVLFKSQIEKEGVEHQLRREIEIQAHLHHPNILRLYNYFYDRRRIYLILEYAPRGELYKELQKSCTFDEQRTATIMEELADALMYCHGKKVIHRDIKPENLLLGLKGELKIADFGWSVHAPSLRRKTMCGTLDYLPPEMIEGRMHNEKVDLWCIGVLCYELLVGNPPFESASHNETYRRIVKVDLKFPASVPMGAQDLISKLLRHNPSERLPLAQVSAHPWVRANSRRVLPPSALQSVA
Chain of Misshapen-like kinase 1 (Homo sapiens) (Q8N4C8 whole entry, looked up): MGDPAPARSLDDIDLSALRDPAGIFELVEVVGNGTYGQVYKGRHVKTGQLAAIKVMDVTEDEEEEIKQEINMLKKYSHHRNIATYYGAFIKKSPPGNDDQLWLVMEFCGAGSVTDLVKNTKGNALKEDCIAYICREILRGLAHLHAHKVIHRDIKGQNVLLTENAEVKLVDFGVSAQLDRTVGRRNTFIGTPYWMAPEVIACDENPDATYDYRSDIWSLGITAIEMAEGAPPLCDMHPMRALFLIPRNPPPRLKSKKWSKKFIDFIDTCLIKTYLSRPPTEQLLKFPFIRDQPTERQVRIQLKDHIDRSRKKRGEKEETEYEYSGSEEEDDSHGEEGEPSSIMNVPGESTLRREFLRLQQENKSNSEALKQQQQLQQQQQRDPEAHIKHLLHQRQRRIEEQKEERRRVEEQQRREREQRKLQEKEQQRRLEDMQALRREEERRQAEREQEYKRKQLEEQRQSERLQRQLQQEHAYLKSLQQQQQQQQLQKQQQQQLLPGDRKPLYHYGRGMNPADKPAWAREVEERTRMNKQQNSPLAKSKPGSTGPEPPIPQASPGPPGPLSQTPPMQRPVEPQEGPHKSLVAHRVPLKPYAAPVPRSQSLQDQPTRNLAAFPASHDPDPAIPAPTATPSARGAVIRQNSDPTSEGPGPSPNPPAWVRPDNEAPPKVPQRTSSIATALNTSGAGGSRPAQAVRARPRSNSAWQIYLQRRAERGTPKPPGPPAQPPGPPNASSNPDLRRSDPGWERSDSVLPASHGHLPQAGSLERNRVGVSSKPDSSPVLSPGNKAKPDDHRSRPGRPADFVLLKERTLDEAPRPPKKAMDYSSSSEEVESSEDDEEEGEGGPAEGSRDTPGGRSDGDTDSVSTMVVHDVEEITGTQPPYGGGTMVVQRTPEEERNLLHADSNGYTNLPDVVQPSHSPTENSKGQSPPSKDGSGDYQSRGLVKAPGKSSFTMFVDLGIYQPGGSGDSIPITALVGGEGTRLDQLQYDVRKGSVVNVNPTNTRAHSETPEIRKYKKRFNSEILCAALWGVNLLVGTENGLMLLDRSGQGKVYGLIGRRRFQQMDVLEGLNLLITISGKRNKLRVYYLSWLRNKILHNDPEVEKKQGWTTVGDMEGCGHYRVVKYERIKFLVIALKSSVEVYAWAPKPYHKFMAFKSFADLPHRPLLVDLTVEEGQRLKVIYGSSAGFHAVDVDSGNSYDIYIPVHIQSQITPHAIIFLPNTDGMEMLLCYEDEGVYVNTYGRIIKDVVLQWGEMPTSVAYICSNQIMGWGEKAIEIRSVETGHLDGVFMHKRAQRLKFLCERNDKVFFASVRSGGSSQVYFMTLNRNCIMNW
Chain of Cyclin-dependent kinase 18 (Homo sapiens) (Q07002 whole entry, the tested form may be a part): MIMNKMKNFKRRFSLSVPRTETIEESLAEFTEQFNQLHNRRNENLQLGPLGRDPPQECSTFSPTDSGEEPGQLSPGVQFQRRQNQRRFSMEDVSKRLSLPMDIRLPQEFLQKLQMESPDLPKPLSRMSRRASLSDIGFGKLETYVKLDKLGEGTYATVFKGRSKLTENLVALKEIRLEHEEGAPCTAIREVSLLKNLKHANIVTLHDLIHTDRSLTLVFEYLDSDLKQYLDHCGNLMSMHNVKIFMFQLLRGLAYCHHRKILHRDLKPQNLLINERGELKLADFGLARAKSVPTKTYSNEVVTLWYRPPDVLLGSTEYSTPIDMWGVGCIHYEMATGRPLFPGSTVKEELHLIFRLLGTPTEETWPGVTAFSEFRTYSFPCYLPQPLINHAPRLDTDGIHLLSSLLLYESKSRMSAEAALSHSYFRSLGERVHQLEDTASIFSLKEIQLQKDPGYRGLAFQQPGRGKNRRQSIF
Chain of Cyclin-G-associated kinase (Homo sapiens) (O14976 whole entry): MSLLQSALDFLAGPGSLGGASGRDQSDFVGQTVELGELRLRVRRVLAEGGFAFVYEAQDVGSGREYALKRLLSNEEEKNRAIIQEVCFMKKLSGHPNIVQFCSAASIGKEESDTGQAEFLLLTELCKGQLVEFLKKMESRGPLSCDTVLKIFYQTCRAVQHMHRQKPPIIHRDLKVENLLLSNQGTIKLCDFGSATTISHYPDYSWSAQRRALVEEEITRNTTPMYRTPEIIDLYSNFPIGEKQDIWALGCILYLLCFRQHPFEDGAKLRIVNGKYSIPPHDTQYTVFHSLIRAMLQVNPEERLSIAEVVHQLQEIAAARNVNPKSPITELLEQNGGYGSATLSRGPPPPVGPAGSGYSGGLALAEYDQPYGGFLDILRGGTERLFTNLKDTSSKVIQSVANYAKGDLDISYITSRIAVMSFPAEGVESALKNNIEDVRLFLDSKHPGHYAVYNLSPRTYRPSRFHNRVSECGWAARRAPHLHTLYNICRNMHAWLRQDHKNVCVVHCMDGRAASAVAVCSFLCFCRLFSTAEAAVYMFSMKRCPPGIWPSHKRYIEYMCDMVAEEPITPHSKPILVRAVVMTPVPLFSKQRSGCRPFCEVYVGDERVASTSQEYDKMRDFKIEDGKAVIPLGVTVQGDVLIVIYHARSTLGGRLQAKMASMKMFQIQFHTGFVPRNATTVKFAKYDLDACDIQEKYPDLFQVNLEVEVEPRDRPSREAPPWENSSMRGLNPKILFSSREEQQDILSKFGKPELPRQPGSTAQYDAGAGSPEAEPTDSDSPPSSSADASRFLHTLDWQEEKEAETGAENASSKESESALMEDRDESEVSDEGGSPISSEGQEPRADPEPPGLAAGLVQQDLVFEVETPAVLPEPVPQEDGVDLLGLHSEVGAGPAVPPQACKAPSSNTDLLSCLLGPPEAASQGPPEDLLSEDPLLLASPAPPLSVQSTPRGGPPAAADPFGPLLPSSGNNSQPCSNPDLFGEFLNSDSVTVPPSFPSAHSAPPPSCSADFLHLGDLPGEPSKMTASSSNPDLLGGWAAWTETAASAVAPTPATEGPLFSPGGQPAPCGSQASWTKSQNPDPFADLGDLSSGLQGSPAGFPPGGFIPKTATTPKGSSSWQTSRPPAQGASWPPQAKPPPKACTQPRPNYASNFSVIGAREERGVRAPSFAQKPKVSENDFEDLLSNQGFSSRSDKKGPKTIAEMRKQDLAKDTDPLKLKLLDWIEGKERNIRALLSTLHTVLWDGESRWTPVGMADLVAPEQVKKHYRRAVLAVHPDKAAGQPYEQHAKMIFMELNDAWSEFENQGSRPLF
Chain of MAP kinase-activated protein kinase 2 (Homo sapiens) (P49137 whole entry, looked up): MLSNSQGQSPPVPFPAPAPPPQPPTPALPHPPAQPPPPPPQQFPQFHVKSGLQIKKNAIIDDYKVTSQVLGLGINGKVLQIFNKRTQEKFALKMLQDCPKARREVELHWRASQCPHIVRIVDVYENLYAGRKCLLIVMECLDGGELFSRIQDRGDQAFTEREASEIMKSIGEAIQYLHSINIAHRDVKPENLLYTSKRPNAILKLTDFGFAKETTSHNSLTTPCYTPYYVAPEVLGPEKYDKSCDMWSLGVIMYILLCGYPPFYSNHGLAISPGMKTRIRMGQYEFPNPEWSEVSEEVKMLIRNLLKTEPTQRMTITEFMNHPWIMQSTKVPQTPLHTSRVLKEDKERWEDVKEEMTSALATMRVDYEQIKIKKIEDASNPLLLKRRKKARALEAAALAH

Structure (SMILES)	Activity [1]	Activity [2]	Activity [3]	Activity [4]	Activity [5]	Activity [6]	Activity [7]	Activity [8]	Activity [9]	Activity [10]	Activity [11]	Activity [12]	Activity [13]	Activity [14]	Activity [15]	Activity [16]
Nc1ccccc1Nc1ccc2c(c1)CCc1ccccc1C2=O	78%	81%	91%	93%	89%	88%	94%	80%	89%	98%	97%	97%	96%	92%	93%	83%
O=C1c2ccc(Nc3ccc(F)cc3F)cc2CCc2ccc(OC[C@H](O)CO)cc21 [Skepinone-L]	88%	100%	99%	100%	84%	96%	78%	85%	100%	97%	96%	98%	94%	97%	53%	99%
